Test results published in US20070275977A1, “N-OXIDES OF PYRIDYLMETHYL -PIPERAZINE AND -PIPERIDINE DERIVATIVES” (priority 2006, published 2007).
Entries after “also recorded” stand apart in the source; their conditions may differ. Read-outs that look alike come from different tables or passages of the source.

What was measured:
[1] = Pharmacological profile in vivo (overall statement)
Procedure: (§1) Lower lip retraction, an in vivo animal model for serotonin 5-HT1A receptor agonistic activity, was measured according to the method described by Berendsen (1989); Apomorphine-induced climbing behaviour in mice, an in vivo animal model for dopamine-D2 receptor antagonistic activity, was determined according to the method described by Costall (1978).

[2] = Brain concentrations in mice after i.v. or p.o. administration, LC-MS; type: in vivo; settings: for concentration at 0.17 h / concentration at 0.5 h / concentration at 1 h / concentration at 3 h / concentration at 7 h / concentration at 24 h: mouse, brain, read-out: piperazine-N-ox analyzed in brain
Procedure: (§2) The LC-MS system consists of 2 Perkin elmer series 200 micro pumps. The pumps were connected to each other by a 50 pI tee mixer, and connected to a Gilson 215 auto sampler. The method was as follows:
(§3) The auto sampler was connected to a Waters Atlantis C18 30*4.6 mm column with 3 μm particles. The column was thermo stated in a Perkin Elmer series 200 column oven at 40° C. The column was connected to a Perkin Elmer series 200 UV meter with a 2.7 μl flowcel. The wavelength was set to 254 nm. The UV meter was connected to a Sciex API 150EX mass spectrometer. The mass spectrometer had the following parameters: Scanrange:150-900 a.m.u., polarity: positive; scan mode: profile; resolution Q1: UNIT; step size: 0.10 a.m.u.; time per scan: 0.500 sec; NEB: 10; CUR: 10; IS: 5200; TEM: 325; DF: 30; FP: 225 and EP: 10. The light scattering detector was connected to the Sciex API 150. The light scattering detector was a Sedere Sedex 55 operating at 50° C. and 3 bar N2. The complete system was controlled by a G3 powermac.
(§4) For oral (p.o.) administration: to the desired quantity (0.5-5 mg) of the solid test compound in a glass tube, some glass beads were added and the solid was milled by vortexing for 2 minutes. After addition of 1 ml of a solution of 1% methylcellulose in water and 2% (v/v) of Poloxamer 188 (Lutrol F68), the compound was suspended by vortexing for 10 minutes. The pH was adjusted to 7. Remaining particles in the suspension were further suspended by using an ultrasonic bath.
For intravenous (i.v.) administration: compounds were dissolved in physiological saline (0.9% NaCl) and the pH was adjusted to 7.
Data were averaged (n=3), and collected in table 4.

[3] = molecular target: Dopamine-D2 (Homo sapiens, UniProt P14416); experiment: In vitro receptor affinity, Dopamine-D2; type: binding; settings: radioligand [3H]-spiperone, read-out: K1 (in vitro receptor affinity)
Procedure: (§5) ln vitro affinity for neurotransmitter receptors: The binding data collected below were either obtained by CE REP (128, rue Danton, 92500 Rueil-Malmaison, France) or at Solvay Pharmaceuticals B.V. (C. J. van Houtenlaan 36, 1381 CP Weesp, The Netherlands), using well documented standard procedures. The affinities for dopamine-D2 and 5-HT1A receptors for instance, were measured as described by Creese (1997) and Gozlan (1983) respectively.

[4] = Plasma concentrations in mice after i.v. or p.o. administration, blood analyzed by LC-MS; type: in vivo; settings: piperazine-N-oxide administered
Procedure: as §2, §3
as §4, with “Remaining particles in the suspension were further suspended by using an ultrasonic bath.” left out

[5] = tested on: Lower lip retraction; experiment: Lower lip retraction; type: in vivo; settings: po, read-out: Lower Lip Retraction: ED50
Procedure: as §4, §1

[6] = tested on: Apomorphine-induced climbing behaviour in mice; experiment: Antagonism of apomorphine-induced climbing behaviour in mice; type: in vivo; settings: Mus musculus, po, read-out: Antagon. apomorphine ind. climbing: ED50
Procedure: as §4, §1

[7] = tested on: neurotransmitter receptors; experiment: Pharmacological profile in vitro (overall statement)
Procedure: as §5
In vitro (ant)agonistic activity at human D2 receptors and 5-HT1A receptors was measured according to the methods described by Solomon (1974) and Weiss (1985) respectively, on the formation of adenylate cyclase in CHO cell-lines expressing these cloned receptors.

[8] = Partition coefficient, experimental (Log P); type: physicochemical; settings: at pH 7.0
[9] = molecular target: T1, Serotonin-5-HT1A (Homo sapiens, UniProt P08908); experiment: In vitro receptor affinity, Serotonin-5-HT1A; type: binding; settings: radioligand [3H]-8-OH-DPAT, read-out: K1 (in vitro receptor affinity)
T1 sequence (P08908 1-422): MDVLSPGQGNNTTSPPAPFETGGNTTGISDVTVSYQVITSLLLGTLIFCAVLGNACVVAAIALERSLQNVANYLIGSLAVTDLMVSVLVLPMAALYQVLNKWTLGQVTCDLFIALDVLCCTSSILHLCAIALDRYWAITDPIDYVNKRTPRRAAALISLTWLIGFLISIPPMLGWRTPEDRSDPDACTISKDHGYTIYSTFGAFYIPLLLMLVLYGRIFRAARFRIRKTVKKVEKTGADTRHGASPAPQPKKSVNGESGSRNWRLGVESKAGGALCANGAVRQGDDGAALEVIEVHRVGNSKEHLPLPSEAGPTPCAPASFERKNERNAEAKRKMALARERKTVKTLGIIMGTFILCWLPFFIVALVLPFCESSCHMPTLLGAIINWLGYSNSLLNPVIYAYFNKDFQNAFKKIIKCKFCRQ
Procedure: as §5

[10] = iv, 0.5 mg/kg i.v. of administered compound
[11] = po, 5 mg/kg p.o. of administered compound

Dopamine-D2, sequence (P14416 whole entry): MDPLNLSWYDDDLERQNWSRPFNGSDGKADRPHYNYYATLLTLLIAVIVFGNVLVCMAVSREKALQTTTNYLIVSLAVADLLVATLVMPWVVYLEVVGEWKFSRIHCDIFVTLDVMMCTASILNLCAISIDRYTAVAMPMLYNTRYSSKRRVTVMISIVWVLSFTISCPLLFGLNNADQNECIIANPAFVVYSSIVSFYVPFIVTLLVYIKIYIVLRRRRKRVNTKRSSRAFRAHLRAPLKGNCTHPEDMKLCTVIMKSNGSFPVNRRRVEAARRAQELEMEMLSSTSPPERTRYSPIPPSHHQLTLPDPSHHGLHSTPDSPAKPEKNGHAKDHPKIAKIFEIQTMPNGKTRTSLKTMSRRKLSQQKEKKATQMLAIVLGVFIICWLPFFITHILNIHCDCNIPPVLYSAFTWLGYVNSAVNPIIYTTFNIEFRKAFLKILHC

[O-][n+]1cc(C[N+]2([O-])CCN(c3cccc4c3OCCO4)CC2)cc(-c2ccc(F)cc2)c1 [SLV313-bis-N-oxide, 4-(2,3-dihydro-benzo[1,4]dioxin-5-yl-1-[5-4-fluorophenyl]-1-oxy-pyridin-3-ylmethyl)piperazine-1-oxide]
potency relative to corresponding parent molecule, the pyridine N-oxide ([1]; stated by analogy): equipotent

[O-][N+]1(Cc2cncc(-c3ccc(F)cc3)c2)CCN(c2cccc3c2OCCO3)CC1 [piperazine N-oxide]
detection of administered compound in brain ([2]; i.v. or p.o.): hardly detected in brain | concentration at 0.17 h [2, 10]: 3.1 ng/g | concentration at 0.5 h [2, 10]: 4.4 ng/g | concentration at 1 h [2, 10]: 0 ng/g | concentration at 3 h [2, 10]: 0 ng/g | concentration at 7 h [2, 10]: 0 ng/g | concentration at 24 h [2, 10]: 0 ng/g | concentration at 0.17 h [2, 11]: 2.9 ng/g | concentration at 0.5 h [2, 11]: 2.6 ng/g | concentration at 1 h [2, 11]: 0 ng/g | concentration at 3 h [2, 11]: 0 ng/g | concentration at 7 h [2, 11]: 0 ng/g | concentration at 24 h [2, 11]: 0 ng/g | Ki [3]: > 1000 nM | time at which plasma concentrations of piperazine-N-oxide and parent molecule cross [4]: within half an hour | pharmacological profile/potency in vivo relative to SLV313 ([1]; in vivo): equipotent | ED50 [5]: 10 mg/kg | ED50 [6]: 0.3 mg/kg | melting point: 181 to 182 °C | pharmacological profile/activity in vitro relative to parent SLV313 [7]: virtually inactive; also recorded: nearly inactive | logP [8]: 1.7 | Ki [9]: 25 nM
